Measurements: PMC10301922, “Anti-Oxidant, Anti-Mutagenic Activity and Safety Evaluation of Antrocin” (Toxics, 2023)

System: Sprague Dawley rats
Assay: 28-day oral toxicity test: absolute organ weight
[1] = female rats, 7.5 mg/kg oral 28 d
[2] = female rats, 37.5 mg/kg oral 28 d
[3] = male rats, 37.5 mg/kg oral 28 d

C=C1CC[C@H]2C(C)(C)CCC[C@@]23C(=O)OC[C@@H]13 [Antrocin, (-)-Antrocin]
Testis/Ovary (female rats (ovary), 7.5 mg/kg oral 28 d): 0.07 ± 0.02 g | Testis/Ovary (female rats (ovary), 37.5 mg/kg oral 28 d): 0.10 ± 0.01 g | Adrenal [1]: 0.05 ± 0.01 g | Brain [1]: 1.9 ± 0.1 g | Heart [1]: 0.9 ± 0.1 g | Kidney [1]: 1.8 ± 0.1 g | Liver [1]: 8.5 ± 0.7 g | Spleen [1]: 0.4 ± 0.1 g | Thymus [1]: 0.4 ± 0.1 g | Adrenal [2]: 0.05 ± 0.01 g | Brain [2]: 2.0 ± 0.1 g | Heart [2]: 1.0 ± 0.1 g | Kidney [2]: 1.7 ± 0.1 g | Liver [2]: 7.8 ± 0.5 g | Spleen [2]: 0.4 ± 0.0 g | Thymus [2]: 0.4 ± 0.1 g | Testis/Ovary (male rats (testis), 7.5 mg/kg oral 28 d): 3.1 ± 0.2 g | Testis/Ovary (male rats (testis), 37.5 mg/kg oral 28 d): 3.2 ± 0.2 g | Adrenal (male rats, 7.5 mg/kg oral 28 d): 0.05 ± 0.01 g | Brain (male rats, 7.5 mg/kg oral 28 d): 2.1 ± 0.2 g | Heart (male rats, 7.5 mg/kg oral 28 d): 1.3 ± 0.2 g | Kidney (male rats, 7.5 mg/kg oral 28 d): 2.8 ± 0.4 g | Liver (male rats, 7.5 mg/kg oral 28 d): 12.2 ± 1.9 g | Spleen (male rats, 7.5 mg/kg oral 28 d): 0.6 ± 0.1 g | Thymus (male rats, 7.5 mg/kg oral 28 d): 0.6 ± 0.1 g | Adrenal [3]: 0.06 ± 0.00 g | Brain [3]: 2.0 ± 0.1 g | Heart [3]: 1.3 ± 0.2 g | Kidney [3]: 2.7 ± 0.2 g | Liver [3]: 11.1 ± 1.2 g | Spleen [3]: 0.6 ± 0.1 g | Thymus [3]: 0.4 ± 0.1 g
